# Results from patent US20230265151A1, “GIP/GLP1 CO-AGONIST COMPOUNDS” (priority 2020, published 2023).
# Read-outs that look alike come from different tables or passages of the source. *1 amine or outer side, *2 acyl side, *3 side chain or, on linkers, in order; H or OH if unused. Where a SMILES comes first, the peptide text is derived from it. Side-chain parts run from the residue outwards. [ ]: non-standard residue; d: D form. The star is where a group is joined. Decanoyl(10-(4-HOOC-PhO)) = O=C(O)c1ccc(OCCCCCCCCCC(=O)*)cc1; αMePhe(2-F) = C[C@](N)(Cc1ccccc1F)C(=O)O; γGlu = O=C(O)[C@H](CCC(=O)[*:2])N[*:1]; C14 diacid = O=C(O)CCCCCCCCCCCCC(=O)*; αMeY = C[C@](N)(Cc1ccc(O)cc1)C(=O)O; αMeL = CC(C)C[C@](C)(N)C(=O)O; Orn = NCCC[C@H](N)C(=O)O; AEEA = NCCOCCOCC(=O)O; Aib = CC(C)(N)C(=O)O
# How the values were obtained:
# Type in all cases: cell-based
# hGIPR = target: T1, hGIPR (Homo sapiens, UniProt P48546); experiment: Functional cAMP formation (HTRF) in HEK-293 clonal cells expressing hGIPR, 0.1% bovine casein, without or with 1.0% human serum albumin; details: for EC50: geometric mean
# T1 construct: expressed in transfected cells
# T1 sequence (P48546 22-466): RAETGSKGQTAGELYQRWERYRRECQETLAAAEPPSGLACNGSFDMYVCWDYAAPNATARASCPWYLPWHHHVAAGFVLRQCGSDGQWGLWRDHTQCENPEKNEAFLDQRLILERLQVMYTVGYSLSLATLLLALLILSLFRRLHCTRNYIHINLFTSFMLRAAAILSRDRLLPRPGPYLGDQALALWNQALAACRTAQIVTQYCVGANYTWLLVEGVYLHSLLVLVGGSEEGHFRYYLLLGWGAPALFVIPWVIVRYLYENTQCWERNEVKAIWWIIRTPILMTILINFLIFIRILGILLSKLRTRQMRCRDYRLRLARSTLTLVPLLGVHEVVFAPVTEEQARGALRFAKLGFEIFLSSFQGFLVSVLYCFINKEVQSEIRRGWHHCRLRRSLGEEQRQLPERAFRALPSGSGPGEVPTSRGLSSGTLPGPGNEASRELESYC
# In short: (§1)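 Readings of the HTRF 665/620 nm ratio, which falls as cAMP rises, were converted to nM cAMP using a standard curve after 30 min peptide exposure at 37° C.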
# hGLP-1R = hGLP-1R (Homo sapiens, UniProt P43220); experiment: Functional cAMP formation (HTRF) in HEK-293 clonal cells expressing hGLP-1R, 0.1% bovine casein, without or with 1.0% human serum albumin; design: expressed in transfected cells; details: for EC50: geometric mean
# Chain of hGLP-1R (P43220 24-463): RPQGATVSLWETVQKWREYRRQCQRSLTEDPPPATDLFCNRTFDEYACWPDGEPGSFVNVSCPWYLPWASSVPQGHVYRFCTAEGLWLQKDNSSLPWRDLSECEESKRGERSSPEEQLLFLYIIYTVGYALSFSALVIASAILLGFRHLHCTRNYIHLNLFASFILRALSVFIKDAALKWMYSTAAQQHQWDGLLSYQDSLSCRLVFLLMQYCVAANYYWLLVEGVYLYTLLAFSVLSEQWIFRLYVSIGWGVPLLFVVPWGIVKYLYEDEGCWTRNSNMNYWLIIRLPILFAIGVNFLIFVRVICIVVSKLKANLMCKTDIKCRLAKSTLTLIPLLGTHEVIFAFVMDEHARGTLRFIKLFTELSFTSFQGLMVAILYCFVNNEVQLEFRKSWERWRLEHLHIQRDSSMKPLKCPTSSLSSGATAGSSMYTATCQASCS
# In short: as §1
# hGCGR = target: T2, hGCGR (Homo sapiens, UniProt P47871); experiment: Functional cAMP formation (HTRF) in HEK-293 clonal cells expressing hGCGR, 0.1% bovine casein, without or with 1.0% human serum albumin; details: geometric mean
# T2 construct: expressed in transfected cells
# T2 sequence (P47871 26-477): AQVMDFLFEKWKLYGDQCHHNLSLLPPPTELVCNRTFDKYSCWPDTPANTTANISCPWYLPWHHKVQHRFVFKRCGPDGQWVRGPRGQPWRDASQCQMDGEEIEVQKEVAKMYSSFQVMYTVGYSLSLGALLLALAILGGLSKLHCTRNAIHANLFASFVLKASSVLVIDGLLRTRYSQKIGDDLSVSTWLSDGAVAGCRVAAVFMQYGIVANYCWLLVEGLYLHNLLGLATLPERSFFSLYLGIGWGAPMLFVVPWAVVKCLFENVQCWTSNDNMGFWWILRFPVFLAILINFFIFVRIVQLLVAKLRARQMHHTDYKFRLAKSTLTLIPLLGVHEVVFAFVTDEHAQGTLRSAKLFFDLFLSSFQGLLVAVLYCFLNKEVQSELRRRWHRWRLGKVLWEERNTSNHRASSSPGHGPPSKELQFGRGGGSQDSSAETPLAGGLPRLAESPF
# In short: as §1
# [1] = HEK293, 0.1% bovine casein and 1.0% human serum albumin, 37° C., percent of maximal response to GIP(1-42)NH2, read-out: hGIPR Emax, % ± SEM
# [2] = 0.1% bovine casein and 1.0% human serum albumin, 37° C., read-out: hGCGR EC50, nM (SEM, n)
smiles,measurement,setting,value
CC[C@H](C)[C@H](NC(=O)[C@H](CC(C)C)NC(=O)[C@](C)(Cc1ccc(O)cc1)NC(=O)[C@@H](CCC(=O)O)NC(=O)[C@@H](NC(=O)[C@H](Cc1ccccc1)NC(=O)[C@H](CCC(=O)O)NC(=O)C(C)(C)NC(=O)[C@H](CCC(N)=O)NC(=O)[C@H](C)NC(=O)[C@H](CCCCNC(=O)COCCOCCNC(=O)COCCOCCNC(=O)CC[C@H](NC(=O)CCCCCCCCCOc1ccc(C(=O)O)cc1)C(=O)O)NC(=O)[C@H](CCCN)NC(=O)[C@H](CC(=O)O)NC(=O)[C@H](CC(C)C)NC(=O)[C@](C)(CC(C)C)NC(=O)[C@@H](NC(=O)[C@H](CO)NC(=O)[C@H](Cc1ccc(OC)cc1)NC(=O)[C@H](CC(=O)O)NC(=O)[C@H](CO)NC(=O)[C@@H](NC(=O)[C@](C)(Cc1ccccc1F)NC(=O)[C@@H](NC(=O)CNC(=O)[C@H](CCC(=O)O)NC(=O)C(C)(C)NC(=O)[C@@H](N)Cc1ccc(O)cc1)[C@@H](C)O)[C@@H](C)O)[C@@H](C)CC)[C@@H](C)CC)C(=O)N[C@@H](CCCCNC(=O)COCCOCCNC(=O)COCCOCCNC(=O)CC[C@H](NC(=O)CCCCCCCCCOc1ccc(C(=O)O)cc1)C(=O)O)C(=O)NCC(=O)NCC(=O)N1CCC[C@H]1C(=O)N[C@@H](CO)C(=O)N[C@@H](CO)C(=O)NCC(=O)N[C@@H](C)C(=O)N1CCC[C@H]1C(=O)N1CCC[C@H]1C(=O)N1CCC[C@H]1C(=O)N[C@@H](CO)C(N)=O [Example 278] (H-Y[Aib]EGT[αMePhe(2-F)]TSDY(Me)SI[αMeL]LD[Orn]K([AEEA-AEEA-γGlu-Decanoyl(10-(4-HOOC-PhO))])AQ[Aib]EFI[dE][αMeY]LIK([AEEA-AEEA-γGlu-Decanoyl(10-(4-HOOC-PhO))])GGPSSGAPPPS-NH2),Emax,"hGIPR; HEK293, read-out: hGIPR Emax, % ± SEM, 0.1% bovine casein and 1.0% human serum albumin, 37° C., percent of maximal response to GIP(1-42)NH2",91.1%
same,Emax,"hGIPR; HEK293, read-out: hGIPR Emax, % ± SEM, cAMP, 37° C., 0.1% bovine casein, percent of maximal response to GIP(1-42)NH2, arithmetic mean",105%
same,EC50,"hGIPR; hGIPR EC50, nM (SEM, n), 0.1% bovine casein and 1.0% human serum albumin, 37° C.",1.41 nM
same,Emax,"hGLP-1R; HEK293, read-out: hGLP-1R Emax, % ± SEM, 0.1% bovine casein and 1.0% human serum albumin, 37° C., percent of maximal response to GLP-1(7-36)NH2",121%
same,Emax,"hGLP-1R; HEK293, read-out: hGLP-1R Emax, % ± SEM, cAMP, 37° C., 0.1% bovine casein, percent of maximal response to GLP-1(7-36)NH2, arithmetic mean",109%
same,EC50,"hGLP-1R; hGLP-1R EC50, nM (SEM, n), 0.1% bovine casein and 1.0% human serum albumin, 37° C.",27 nM
same,EC50,"hGCGR; hGCGR EC50, nM (SEM, n), 0.1% bovine casein and 1.0% human serum albumin, 37° C.",> 9950 nM
same,EC50,"hGCGR; hGCGR EC50, nM (SEM, n), cAMP, 37° C., 0.1% bovine casein (no human serum albumin)",> 9950 nM
CC[C@H](C)[C@H](NC(=O)[C@H](CC(C)C)NC(=O)C(C)(Cc1ccc(O)cc1)NC(=O)[C@H](CCCCNC(=O)[C@@H](N)CCCCNC(=O)CC[C@H](NC(=O)CCCCCCCCCCCCC(=O)O)C(=O)O)NC(=O)[C@@H](NC(=O)[C@H](Cc1ccccc1)NC(=O)[C@H](CCC(=O)O)NC(=O)C(C)(C)NC(=O)[C@H](CCC(N)=O)NC(=O)[C@H](C)NC(=O)[C@H](CCCCNC(=O)[C@@H](N)CCCCNC(=O)CC[C@H](NC(=O)CCCCCCCCCCCCC(=O)O)C(=O)O)NC(=O)[C@H](CCCN)NC(=O)[C@H](CC(=O)O)NC(=O)[C@H](CC(C)C)NC(=O)C(C)(CC(C)C)NC(=O)[C@@H](NC(=O)[C@H](CO)NC(=O)[C@H](Cc1ccncc1)NC(=O)[C@H](CC(=O)O)NC(=O)[C@H](CO)NC(=O)[C@@H](NC(=O)C(C)(Cc1ccccc1F)NC(=O)[C@@H](NC(=O)CNC(=O)[C@H](CCC(=O)O)NC(=O)C(C)(C)NC(=O)[C@@H](N)Cc1ccc(O)cc1)[C@@H](C)O)[C@@H](C)O)[C@@H](C)CC)[C@@H](C)CC)C(=O)N[C@@H](CCC(=O)O)C(=O)NCC(=O)NCC(=O)N1CCC[C@H]1C(=O)N[C@@H](CO)C(=O)N[C@@H](CO)C(=O)NCC(=O)N[C@@H](C)C(=O)N1CCC[C@H]1C(=O)N1CCC[C@H]1C(=O)N1CCC[C@H]1C(=O)N[C@@H](CO)C(N)=O (some centres unmarked) [Example 161],Emax,"hGIPR; HEK293, read-out: hGIPR Emax, % ± SEM, percent of maximal response to GIP(1-42)NH2, 37° C., 0.1% bovine casein, arithmetic mean",94.6 ± 1.21%
same,EC50,"hGIPR; hGIPR EC50, nM (SEM, n), cAMP, incubated at 37° C., 0.1% bovine casein (no human serum albumin)",0.0207 nM
same,EC50,"hGLP-1R; hGLP-1R EC50, nM (SEM, n), cAMP, incubated at 37° C., 0.1% bovine casein (no human serum albumin)",0.203 nM
same,EC50,"hGCGR; hGCGR EC50, nM (SEM, n), cAMP, incubated at 37° C., 0.1% bovine casein (no human serum albumin)",> 9950 nM
CC[C@H](C)[C@H](NC(=O)[C@H](CC(C)C)NC(=O)[C@](C)(Cc1ccc(O)cc1)NC(=O)[C@@H](CCC(=O)O)NC(=O)[C@@H](NC(=O)[C@H](Cc1ccccc1)NC(=O)[C@H](CCCCNC(=O)COCCOCCNC(=O)COCCOCCNC(=O)CCCCCCCCCCCCC(=O)O)NC(=O)C(C)(C)NC(=O)[C@H](CCC(N)=O)NC(=O)[C@H](C)NC(=O)[C@H](CCCCNC(=O)COCCOCCNC(=O)COCCOCCNC(=O)CCCCCCCCCCCCC(=O)O)NC(=O)[C@H](CCCN)NC(=O)[C@H](CC(=O)O)NC(=O)[C@H](CC(C)C)NC(=O)[C@](C)(CC(C)C)NC(=O)[C@@H](NC(=O)[C@H](CO)NC(=O)[C@H](Cc1ccc(OC)cc1)NC(=O)[C@H](CC(=O)O)NC(=O)[C@H](CO)NC(=O)[C@@H](NC(=O)[C@](C)(Cc1ccccc1F)NC(=O)[C@@H](NC(=O)CNC(=O)[C@H](CCC(=O)O)NC(=O)C(C)(C)NC(=O)[C@@H](N)Cc1ccc(O)cc1)[C@@H](C)O)[C@@H](C)O)[C@@H](C)CC)[C@@H](C)CC)C(=O)N[C@@H](CCC(=O)O)C(=O)NCC(=O)NCC(=O)N1CCC[C@H]1C(=O)N[C@@H](CO)C(=O)N[C@@H](CO)C(=O)NCC(=O)N[C@@H](C)C(=O)N1CCC[C@H]1C(=O)N1CCC[C@H]1C(=O)N1CCC[C@H]1C(=O)N[C@@H](CO)C(N)=O [Example 265] (H-Y[Aib]EGT[αMePhe(2-F)]TSDY(Me)SI[αMeL]LD[Orn]K([AEEA-AEEA-C14 diacid])AQ[Aib]K([AEEA-AEEA-C14 diacid])FI[dE][αMeY]LIEGGPSSGAPPPS-NH2),Emax,hGIPR; [1],96%
same,Emax,"hGIPR; HEK293, cAMP, 37° C., 0.1% bovine casein, percent of maximal response to GIP(1-42)NH2, arithmetic mean, read-out: hGIPR Emax, % ± SEM",100%
same,EC50,"hGIPR; cAMP, 37° C., 0.1% bovine casein (no human serum albumin), read-out: hGIPR EC50, nM (SEM, n)",0.0145 nM
same,EC50,"hGLP-1R; cAMP, 37° C., 0.1% bovine casein (no human serum albumin), read-out: hGLP-1R EC50, nM (SEM, n)",0.262 nM
same,EC50,hGCGR; [2],> 9950 nM
same,EC50,"hGCGR; cAMP, 37° C., 0.1% bovine casein (no human serum albumin), read-out: hGCGR EC50, nM (SEM, n)",> 9950 nM
CC[C@H](C)[C@H](NC(=O)[C@H](CCCN)NC(=O)[C@H](CC(=O)O)NC(=O)[C@H](CC(C)C)NC(=O)[C@](C)(CC(C)C)NC(=O)[C@@H](NC(=O)[C@H](CO)NC(=O)[C@H](Cc1ccncc1)NC(=O)[C@H](CC(=O)O)NC(=O)[C@H](CO)NC(=O)[C@@H](NC(=O)[C@](C)(Cc1ccccc1F)NC(=O)[C@@H](NC(=O)CNC(=O)[C@H](CCC(=O)O)NC(=O)C(C)(C)NC(=O)[C@@H](N)Cc1ccc(O)cc1)[C@@H](C)O)[C@@H](C)O)[C@@H](C)CC)C(=O)N[C@@H](C)C(=O)N[C@@H](CCC(N)=O)C(=O)NC(C)(C)C(=O)N[C@@H](CCCCNC(=O)COCCOCCNC(=O)COCCOCCNC(=O)CCCCCCCCCCCCC(=O)O)C(=O)N[C@@H](Cc1ccccc1)C(=O)N[C@H](C(=O)N[C@H](CCC(=O)O)C(=O)N[C@@](C)(Cc1ccc(O)cc1)C(=O)N[C@@H](CC(C)C)C(=O)N[C@H](C(=O)N[C@@H](CCCCNC(=O)COCCOCCNC(=O)COCCOCCNC(=O)CCCCCCCCCCCCC(=O)O)C(=O)NCC(=O)NCC(=O)N1CCC[C@H]1C(=O)N[C@@H](CO)C(=O)N[C@@H](CO)C(=O)NCC(=O)N[C@@H](C)C(=O)N1CCC[C@H]1C(=O)N1CCC[C@H]1C(=O)N1CCC[C@H]1C(=O)N[C@@H](CO)C(N)=O)[C@@H](C)CC)[C@@H](C)CC [Example 222],Emax,hGIPR; [1],77.9%
same,Emax,"hGIPR; HEK293, percent of maximal response to GIP(1-42)NH2, 37° C., 0.1% bovine casein, arithmetic mean, read-out: hGIPR Emax, % ± SEM",98.7%
same,EC50,"hGIPR; cAMP, incubated at 37° C., 0.1% bovine casein (no human serum albumin), read-out: hGIPR EC50, nM (SEM, n)",0.0195 nM
same,Emax,"hGLP-1R; HEK293, 0.1% bovine casein and 1.0% human serum albumin, 37° C., percent of maximal response to GLP-1(7-36)NH2, read-out: hGLP-1R Emax, % ± SEM",117%
same,Emax,"hGLP-1R; HEK293, percent of maximal response to GLP-1(7-36)NH2, 37° C., 0.1% bovine casein, arithmetic mean, read-out: hGLP-1R Emax, % ± SEM",91.6%
same,EC50,"hGLP-1R; cAMP, incubated at 37° C., 0.1% bovine casein (no human serum albumin), read-out: hGLP-1R EC50, nM (SEM, n)",0.518 nM
same,EC50,hGCGR; [2],> 9950 nM
same,EC50,"hGCGR; cAMP, incubated at 37° C., 0.1% bovine casein (no human serum albumin), read-out: hGCGR EC50, nM (SEM, n)",> 9950 nM
